Data on 25 compounds can be found in ChEMBL document CHEMBL2434863, “Synthesis and in vitro/in vivo antibacterial activity of oxazolidinones having thiocarbamate at C-5 on the A-ring and an amide- or urea-substituted [1,2,5]triazepane or [1,2,5]oxadiazepane as the C-ring” (Eur J Med Chem, 2013).

What all share (type): functional
Assay [1] has as its system Haemophilus influenzae. The assay can be described thus: Antibacterial activity against Haemophilus influenzae SR27914 clinical isolate assessed as growth inhibition by broth microdilution method. A general note: Broth dilution looks for growth in wells or tubes with falling amounts of substance.
For assay [2], the system named is Streptococcus pneumoniae. In words: Antibacterial activity against Streptococcus pneumoniae SR26207 clinical isolate assessed as growth inhibition by broth microdilution method.
Assay [3] concerns Staphylococcus aureus. In words: Antibacterial activity against linezolid-resistant Staphylococcus aureus NRS271 assessed as growth inhibition by broth microdilution method.
The subject of assay [4] is Enterococcus faecalis. In words: Antibacterial activity against Enterococcus faecalis SR1004 clinical isolate assessed as growth inhibition by broth microdilution method.
The test system of assay [5] is Staphylococcus aureus. In words: Antibacterial activity against Staphylococcus aureus SR20549 clinical isolate assessed as growth inhibition by broth microdilution method.
The subject of assay [6] is Staphylococcus aureus. In words: Antibacterial activity against Staphylococcus aureus Smith assessed as growth inhibition by broth microdilution method.
Assay [7] relates to Moraxella catarrhalis. The assay can be described thus: Antibacterial activity against Moraxella catarrhalis SR26840 clinical isolate assessed as growth inhibition by broth microdilution method.
The subject of assay [8] is Enterococcus faecium. The assay can be described thus: Antibacterial activity against Enterococcus faecium SR7940 clinical isolate assessed as growth inhibition by broth microdilution method.

As to `CONC(=O)N1CCN(c2ccc(N3C[C@H](CNC(=S)OC)OC3=O)cc2F)CCN1`, the MIC in assay [1] is 16 µg/mL; in assay [2], 0.25 µg/mL; in assay [3] it was 16 µg/mL; in assay [4] it was 0.5 µg/mL; in assay [5] it was 1 µg/mL; in assay [6], 1 µg/mL. Moreover, the values for the MIC in assay [7] and in assay [8] were 4 µg/mL and 0.5 µg/mL, respectively.
Take `CONC(=O)N1CCN(c2c(F)cc(N3C[C@H](CNC(=S)OC)OC3=O)cc2F)CCO1`: the MIC in assay [1] turned out to be 16 µg/mL; in assay [2], 0.125 µg/mL; in assay [3], 8 µg/mL; in assay [4], 1 µg/mL; in assay [5] it was 0.5 µg/mL; in assay [6], 1 µg/mL. Also, the MIC in assay [7] turned out to be 2 µg/mL; in assay [8], 0.5 µg/mL.
On to `CC(=O)NC[C@H]1CN(c2ccc(-c3ccc(N4CCON(C(=O)CO)CC4)nc3)c(F)c2)C(=O)O1`, for which the MIC is 16 µg/mL in assay [1]; 0.125 µg/mL in assay [2]; 8 µg/mL in assay [3]; 1 µg/mL in assay [4]; 1 µg/mL in assay [5]; 2 µg/mL in assay [6]. The MIC in assay [7] was determined as 16 µg/mL; in assay [8], 1 µg/mL.
Regarding `O=C(CO)N1CCN(c2ccc(-c3ccc(N4C[C@H](Cn5ccnn5)OC4=O)cc3F)cn2)CCO1`, the MIC worked out at 32 µg/mL in assay [1]; 0.25 µg/mL in assay [2]; 8 µg/mL in assay [3]; 2 µg/mL in assay [4]; 1 µg/mL in assay [5]; 2 µg/mL in assay [6]. For the same compound, the MIC was found to be 8 µg/mL in assay [7] and 1 µg/mL in assay [8].
In the case of `NC(=O)N1CCN(c2c(F)cc(N3C[C@H](Cn4ccnn4)OC3=O)cc2F)CCO1`, the MIC in assay [1] came to 16 µg/mL; in assay [2] it was 1 µg/mL; in assay [3] it was 32 µg/mL; in assay [4], 4 µg/mL; in assay [5], 1 µg/mL; in assay [6] it was 2 µg/mL. Moreover, the MIC was 8 µg/mL in assay [7] and 4 µg/mL in assay [8].
With `NC(=O)N1CCN(c2c(F)cc(N3C[C@H](CNc4ccon4)OC3=O)cc2F)CCN1`, the MIC turned out to be 16 µg/mL in assay [1]; 0.125 µg/mL in assay [2]; 16 µg/mL in assay [3]; 1 µg/mL in assay [4]; 0.5 µg/mL in assay [5]; 1 µg/mL in assay [6]. Also, the MIC in assay [7] worked out at 8 µg/mL; in assay [8], 1 µg/mL.
As for `CNC(=O)N1CCN(c2c(F)cc(N3C[C@H](CNC(=S)OC)OC3=O)cc2F)CCO1`, the MIC in assay [1] worked out at 32 µg/mL; in assay [2] it was 0.125 µg/mL; in assay [3], 4 µg/mL; in assay [4], 1 µg/mL; in assay [5] it was 0.5 µg/mL; in assay [6], 0.5 µg/mL. Further, the MIC in assay [7] was 2 µg/mL; in assay [8], 0.5 µg/mL.
As to `CNC(=O)N1CCN(c2c(F)cc(N3C[C@H](Cn4ccnn4)OC3=O)cc2F)CCO1`, the MIC came to 32 µg/mL in assay [1]; 1 µg/mL in assay [2]; 32 µg/mL in assay [3]; 4 µg/mL in assay [4]; 2 µg/mL in assay [5]; 8 µg/mL in assay [6]. The MIC was 16 µg/mL in assay [7] and 2 µg/mL in assay [8].
`COC(=S)NC[C@H]1CN(c2ccc(N3CCNN(C(=O)NO)CC3)c(F)c2)C(=O)O1`: the MIC in assay [1] is 4 µg/mL; in assay [2], no more than 0.063 µg/mL; in assay [3], 16 µg/mL; in assay [4], 1 µg/mL; in assay [5] it was 0.5 µg/mL; in assay [6], 1 µg/mL. Besides, the MIC is 4 µg/mL in assay [7] and 1 µg/mL in assay [8].
With `O=C(NO)N1CCN(c2c(F)cc(N3C[C@H](Cn4ccnn4)OC3=O)cc2F)CCN1`, the MIC came to 16 µg/mL in assay [1]; 0.5 µg/mL in assay [2]; 64 µg/mL in assay [3]; 8 µg/mL in assay [4]; 2 µg/mL in assay [5]; 4 µg/mL in assay [6]. The MIC in assay [7] and in assay [8] was 8 µg/mL throughout.
Consider `O=C(NO)N1CCN(c2c(F)cc(N3C[C@H](Cn4ccnn4)OC3=O)cc2F)CCO1`, for which the MIC in assay [1] turned out to be 16 µg/mL; in assay [2] it was 0.5 µg/mL; in assay [3], 64 µg/mL; in assay [4], 4 µg/mL; in assay [5] it was 2 µg/mL; in assay [6], 2 µg/mL. For the same compound, the figures for the MIC in assay [7] and in assay [8] were 8 µg/mL and 4 µg/mL, respectively.
`CC(=O)NC[C@H]1CN(c2cc(F)c(N3CCn4c(=O)c5cc(N)cnc5n4CC3)c(F)c2)C(=O)O1`: the MIC worked out at 32 µg/mL in assay [1]; 0.25 µg/mL in assay [2]; 8 µg/mL in assay [3]; 2 µg/mL in assay [4]; 1 µg/mL in assay [5]; 0.5 µg/mL in assay [6]. Moreover, the MIC in assay [7] was 8 µg/mL; in assay [8] it was 2 µg/mL.
For `Nc1cnc2c(c1)c(=O)n1n2CCN(c2c(F)cc(N3C[C@H](Cn4ccnn4)OC3=O)cc2F)CC1`, the MIC in assay [1] worked out at 32 µg/mL; in assay [2], 0.25 µg/mL; in assay [3] it was 16 µg/mL; in assay [4], 2 µg/mL; in assay [5], 1 µg/mL; in assay [6] it was 1 µg/mL. Besides, the MIC in assay [7] was 16 µg/mL; in assay [8], 2 µg/mL.
For the compound `NC(=O)N1CCN(c2c(F)cc(N3C[C@H](Cn4ccnn4)OC3=O)cc2F)CCN1`, the MIC stood at 16 µg/mL in assay [1]; 0.5 µg/mL in assay [2]; 32 µg/mL in assay [3]; 2 µg/mL in assay [4]; 1 µg/mL in assay [5]; 1 µg/mL in assay [6]. The MIC in assay [7] and in assay [8] was 4 µg/mL throughout.
Consider `CC(=O)N1CCN(c2c(F)cc(N3C[C@H](Cn4ccnn4)OC3=O)cc2F)CCN1`, for which the MIC is 32 µg/mL in assay [1]; 1 µg/mL in assay [2]; 16 µg/mL in assay [3]; 2 µg/mL in assay [4]; 1 µg/mL in assay [5]; 2 µg/mL in assay [6]. Also, the MIC in assay [7] is 16 µg/mL; in assay [8], 2 µg/mL.
Consider `O=C(C(F)F)N1CCN(c2c(F)cc(N3C[C@H](Cn4ccnn4)OC3=O)cc2F)CCN1`, for which the MIC in assay [1] is 16 µg/mL; in assay [2], 0.125 µg/mL; in assay [3], 16 µg/mL; in assay [4] it was 1 µg/mL; in assay [5], 0.5 µg/mL; in assay [6] it was 1 µg/mL. In addition, the values for the MIC in assay [7] and in assay [8] were 8 µg/mL and 1 µg/mL, respectively.
With `O=C(C(F)F)N1CCN(c2c(F)cc(N3C[C@H](CNc4ccon4)OC3=O)cc2F)CCN1`, the MIC in assay [1] amounted to 16 µg/mL; in assay [2], 0.125 µg/mL; in assay [3], 8 µg/mL; in assay [4], 0.5 µg/mL; in assay [5], 0.5 µg/mL; in assay [6], 1 µg/mL. For the same compound, the figures for the MIC in assay [7] and in assay [8] were 4 µg/mL and 0.5 µg/mL, respectively.
With `CC(=O)NC[C@H]1CN(c2ccc(N3CCn4c(=O)c5cccnc5n4CC3)c(F)c2)C(=O)O1`, the MIC in assay [1] came to 32 µg/mL; in assay [2], 0.5 µg/mL; in assay [3], 16 µg/mL; in assay [4], 2 µg/mL; in assay [5], 2 µg/mL; in assay [6], 1 µg/mL. The results for the MIC in assay [7] and in assay [8] were 16 µg/mL and 2 µg/mL, respectively.
As for `CC(=O)NC[C@H]1CN(c2cc(F)c(N3CCn4c(=O)c5cccnc5n4CC3)c(F)c2)C(=O)O1`, the MIC in assay [1] came out at 16 µg/mL; in assay [2], 0.25 µg/mL; in assay [3], 8 µg/mL; in assay [4] it was 1 µg/mL; in assay [5] it was 1 µg/mL; in assay [6] it was 0.5 µg/mL. Besides, the MIC in assay [7] was found to be 4 µg/mL; in assay [8] it was 1 µg/mL.
Turning to `O=C1O[C@@H](Cn2ccnn2)CN1c1ccc(N2CCn3c(=O)c4cccnc4n3CC2)c(F)c1`, the MIC came to 32 µg/mL in assay [1]; 1 µg/mL in assay [2]; 64 µg/mL in assay [3]; 4 µg/mL in assay [4]; 2 µg/mL in assay [5]; 4 µg/mL in assay [6]. The values for the MIC in assay [7] and in assay [8] were 32 µg/mL and 4 µg/mL, respectively.
`O=C1O[C@@H](Cn2ccnn2)CN1c1cc(F)c(N2CCn3c(=O)c4cccnc4n3CC2)c(F)c1`: the MIC in assay [1] came out at 32 µg/mL; in assay [2], 0.5 µg/mL; in assay [3], 8 µg/mL; in assay [4] it was 1 µg/mL; in assay [5], 0.5 µg/mL; in assay [6] it was 2 µg/mL. In addition, the MIC is 8 µg/mL in assay [7] and 1 µg/mL in assay [8].
Take `CC(=O)NC[C@H]1CN(c2cc(F)c(N3CCn4c(=O)c5cc(Cl)cnc5n4CC3)c(F)c2)C(=O)O1`: the MIC in assay [1] was found to be 64 µg/mL; in assay [2], 0.25 µg/mL; in assay [3], 8 µg/mL; in assay [4], 2 µg/mL; in assay [5] it was 1 µg/mL; in assay [6], 1 µg/mL. Besides, the MIC in assay [7] was 4 µg/mL; in assay [8] it was 1 µg/mL.
For the compound `CC(=O)NC[C@H]1CN(c2cc(F)c(N3CCn4c(=O)c5cc(Br)cnc5n4CC3)c(F)c2)C(=O)O1`, the MIC in assay [1] is 64 µg/mL; in assay [2] it was 0.25 µg/mL; in assay [3] it was 8 µg/mL; in assay [4] it was 2 µg/mL; in assay [5] it was 1 µg/mL; in assay [6] it was 1 µg/mL. The MIC came out at 4 µg/mL in assay [7] and 1 µg/mL in assay [8].
Consider `CC(=O)N1CCN(c2c(F)cc(N3C[C@H](CNC(C)=S)OC3=O)cc2F)CCO1`, for which the MIC in assay [1] came out at 8 µg/mL; in assay [2], 0.125 µg/mL; in assay [3] it was 4 µg/mL; in assay [4] it was 0.5 µg/mL; in assay [5] it was 0.25 µg/mL; in assay [6], 1 µg/mL. Besides, the MIC was 2 µg/mL in assay [7] and 0.5 µg/mL in assay [8].
As for `COC(=S)NC[C@H]1CN(c2cc(F)c(N3CCNN(C(C)=O)CC3)c(F)c2)C(=O)O1`, the MIC in assay [1] is 32 µg/mL; in assay [2], 0.125 µg/mL; in assay [3], 4 µg/mL; in assay [4] it was 1 µg/mL; in assay [5], 0.5 µg/mL; in assay [6] it was 1 µg/mL. The values for the MIC in assay [7] and in assay [8] were 2 µg/mL and 0.5 µg/mL, respectively.
